From ChEMBL document CHEMBL1133877, “2-Amino-4,6-diarylpyridines as novel ligands for the estrogen receptor” (Bioorg Med Chem Lett, 2001)

Assays:
Estrogen receptor beta [1] = molecular target: T1, Estrogen receptor beta (Homo sapiens, UniProt Q92731)
Estrogen receptor [2] = molecular target: T2, Estrogen receptor (Homo sapiens, UniProt P03372)
T2 sequence (P03372 whole entry): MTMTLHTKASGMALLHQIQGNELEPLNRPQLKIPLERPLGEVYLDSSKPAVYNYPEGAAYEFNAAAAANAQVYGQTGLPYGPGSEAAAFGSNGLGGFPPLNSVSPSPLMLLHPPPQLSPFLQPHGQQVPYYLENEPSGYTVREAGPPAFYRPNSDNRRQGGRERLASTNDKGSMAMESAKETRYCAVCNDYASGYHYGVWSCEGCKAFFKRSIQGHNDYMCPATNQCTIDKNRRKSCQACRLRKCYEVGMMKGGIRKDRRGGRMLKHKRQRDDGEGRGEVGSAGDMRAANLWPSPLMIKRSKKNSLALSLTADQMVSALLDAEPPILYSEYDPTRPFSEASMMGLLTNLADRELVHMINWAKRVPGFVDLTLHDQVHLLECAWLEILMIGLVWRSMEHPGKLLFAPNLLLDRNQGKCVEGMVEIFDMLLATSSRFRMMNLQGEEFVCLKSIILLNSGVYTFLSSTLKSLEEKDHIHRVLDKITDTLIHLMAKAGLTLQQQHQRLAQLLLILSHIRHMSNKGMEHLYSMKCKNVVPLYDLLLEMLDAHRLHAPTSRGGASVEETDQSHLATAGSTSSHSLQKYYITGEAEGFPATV

Estrogen receptor beta [3] = molecular target: T1, Estrogen receptor beta; assay: Displacement of [3H]17-beta-estradiol from Estrogen receptor beta of bacterial lysate by scintillation proximity assay (SPA) at 10e-5 M; Inactive
Estrogen receptor [4] = molecular target: T2, Estrogen receptor; assay: Displacement of [3H]17-beta-estradiol from Estrogen receptor alpha of bacterial lysate by scintillation proximity assay (SPA) at 10e-5 M; Inactive

T1 sequence (Q92731 whole entry): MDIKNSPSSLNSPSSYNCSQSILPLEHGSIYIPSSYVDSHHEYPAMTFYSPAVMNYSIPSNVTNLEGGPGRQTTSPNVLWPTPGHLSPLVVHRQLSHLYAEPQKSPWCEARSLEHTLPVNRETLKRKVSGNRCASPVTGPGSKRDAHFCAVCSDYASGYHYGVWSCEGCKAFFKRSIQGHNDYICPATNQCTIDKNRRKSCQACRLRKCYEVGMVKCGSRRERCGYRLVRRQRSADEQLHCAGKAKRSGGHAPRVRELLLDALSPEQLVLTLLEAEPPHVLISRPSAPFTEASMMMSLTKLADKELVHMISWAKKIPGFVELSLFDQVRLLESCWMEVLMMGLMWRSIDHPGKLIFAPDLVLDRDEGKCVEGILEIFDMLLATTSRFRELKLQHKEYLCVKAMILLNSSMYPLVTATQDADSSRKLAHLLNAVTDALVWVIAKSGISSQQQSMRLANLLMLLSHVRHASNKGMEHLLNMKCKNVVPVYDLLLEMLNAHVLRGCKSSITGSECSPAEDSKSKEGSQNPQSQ

CCCN(Cc1ccccn1)c1cc(-c2ccccc2)cc(-c2ccc(O)cc2)n1
Ki (Estrogen receptor beta [1]): 710 nM | Ki (Estrogen receptor [2]): 180 nM

Cc1ccccc1-c1cc(-c2ccc(O)cc2)nc(N(C)CCc2ccccc2)c1
Ki (Estrogen receptor beta [1]): 1100 nM | Ki (Estrogen receptor [2]): 650 nM

CCCN(Cc1ccccn1)c1cc(-c2ccccc2)cc(-c2ccc(O)cc2C)n1
Ki (Estrogen receptor beta [3]): Not Active | Ki (Estrogen receptor [4]): Not Active

Cc1cc(-c2cc(-c3ccccc3)cc(N(C)CCN(C)C)n2)ccc1O
Ki (Estrogen receptor beta [3]): Not Active | Ki (Estrogen receptor [4]): Not Active

CCCN(Cc1ccccn1)c1cc(-c2ccccc2)cc(-c2ccc(O)c(C)c2)n1
Ki (Estrogen receptor beta [1]): 330 nM | Ki (Estrogen receptor [2]): 70 nM

CN(CCc1ccccc1)c1cc(-c2ccccc2)cc(-c2ccc(O)cc2)n1
Ki (Estrogen receptor beta [1]): 1050 nM | Ki (Estrogen receptor [2]): 490 nM

Cc1cc(-c2cc(-c3ccccc3)cc(N(CCc3ccccc3)Cc3ccccc3)n2)ccc1O
Ki (Estrogen receptor beta [1]): 250 nM | Ki (Estrogen receptor [2]): 130 nM

Cc1cc(-c2cc(-c3ccccc3)cc(N(C)Cc3cccc4ccccc34)n2)ccc1O
Ki (Estrogen receptor beta [1]): 1410 nM | Ki (Estrogen receptor [2]): 450 nM

Cc1cc(-c2cc(-c3ccccc3)cc(N(C)CC(C)C)n2)ccc1O
Ki (Estrogen receptor beta [1]): 660 nM | Ki (Estrogen receptor [2]): 210 nM

CCCCN(C)c1cc(-c2ccccc2)cc(-c2ccc(O)c(C)c2)n1
Ki (Estrogen receptor beta [1]): 790 nM | Ki (Estrogen receptor [2]): 660 nM

Cc1cc(-c2cc(-c3ccccc3)cc(N(C)CCc3ccccc3)n2)ccc1O
Ki (Estrogen receptor beta [1]): 680 nM | Ki (Estrogen receptor [2]): 160 nM

Cc1cc(-c2cc(-c3ccccc3)cc(N3CCC(Cc4ccccc4)CC3)n2)ccc1O
Ki (Estrogen receptor beta [1]): 110 nM | Ki (Estrogen receptor [2]): 20 nM

CN(CCc1ccccc1)c1cc(-c2ccc(O)cc2)cc(-c2ccc(O)cc2)n1
Ki (Estrogen receptor beta [1]): > 3000 nM | Ki (Estrogen receptor [2]): > 3000 nM

Cc1cc(-c2cc(-c3ccccc3)cc(N3CCCC3)n2)ccc1O
Ki (Estrogen receptor beta [3]): Not Active | Ki (Estrogen receptor [4]): Not Active

Cc1cc(-c2cc(-c3ccccc3)cc(N(C)Cc3ccccc3)n2)ccc1O
Ki (Estrogen receptor beta [1]): 1120 nM | Ki (Estrogen receptor [2]): 380 nM

Cc1cc(-c2cc(-c3ccccc3)cc(N(C)CCc3ccccn3)n2)ccc1O
Ki (Estrogen receptor beta [1]): > 3000 nM | Ki (Estrogen receptor [2]): 1260 nM

CC(C)CN(C)c1cc(-c2ccccc2)cc(-c2ccc(O)cc2)n1
Ki (Estrogen receptor beta [1]): 1260 nM | Ki (Estrogen receptor [2]): 620 nM

CCOCCN(CCOCC)c1cc(-c2ccccc2)cc(-c2ccc(O)c(C)c2)n1
Ki (Estrogen receptor beta [1]): 1170 nM | Ki (Estrogen receptor [2]): 2000 nM

CCN(Cc1ccncc1)c1cc(-c2ccccc2)cc(-c2ccc(O)c(C)c2)n1
Ki (Estrogen receptor beta [1]): 1000 nM | Ki (Estrogen receptor [2]): 830 nM
